Results reported in ChEMBL document CHEMBL5252512, “Recent Progress in the Development of HIV-1 Protease Inhibitors for the Treatment of HIV/AIDS” (J Med Chem, 2016).
pEC50, pIC50, pKi: −log10 of the molar value.

Assays:
[1] = system: Human immunodeficiency virus 1; test: Antiviral activity against HIV1 T13572 infected in human MT4 cells expressing LTR and EGFP assessed as inhibition of virus-induced cytopathic effect by fluorescence microscopic analysis; format: functional, organism-based; conditions: Human immunodeficiency virus 1, T13572, MT4
[2] = system: Human immunodeficiency virus 1; test: Ratio of EC50 for antiviral activity against HIV1-T21217 to EC50 for antiviral activity against wild type HIV1 r13205; format: functional
[3] = system: Human immunodeficiency virus 1; test: Ratio of EC50 for antiviral activity against HIV1-T13717 to EC50 for antiviral activity against wild type HIV1 r13205; format: functional
[4] = system: Human immunodeficiency virus 1; test: Ratio of EC50 for antiviral activity against HIV1-T13632 to EC50 for antiviral activity against wild type HIV1 r13205; format: functional
[5] = system: Human immunodeficiency virus 1; test: Ratio of EC50 for antiviral activity against HIV1-T13572 to EC50 for antiviral activity against wild type HIV1 r13205; format: functional
[6] = system: Human immunodeficiency virus 1; test: Antiviral activity against HIV1 T21055 infected in human MT4 cells expressing LTR and EGFP assessed as inhibition of virus-induced cytopathic effect by fluorescence microscopic analysis; format: functional, organism-based; conditions: Human immunodeficiency virus 1, T21055, MT4
[7] = system: Human immunodeficiency virus 1; test: Antiviral activity against HIV1 T21217 infected in human MT4 cells expressing LTR and EGFP assessed as inhibition of virus-induced cytopathic effect by fluorescence microscopic analysis; format: functional, organism-based; conditions: Human immunodeficiency virus 1, T21217, MT4
[8] = system: Human immunodeficiency virus 1; test: Ratio of EC50 for antiviral activity against HIV1-T21055 to EC50 for antiviral activity against wild type HIV1 r13205; format: functional
[9] = system: Human immunodeficiency virus 1; test: Antiviral activity against HIV1 T13717 infected in human MT4 cells expressing LTR and EGFP assessed as inhibition of virus-induced cytopathic effect by fluorescence microscopic analysis; format: functional, organism-based; conditions: Human immunodeficiency virus 1, T13717, MT4
[10] = system: Human immunodeficiency virus 1; test: Ratio of EC50 for antiviral activity against HIV1-T20760 to EC50 for antiviral activity against wild type HIV1 r13205; format: functional
[11] = system: Human immunodeficiency virus 1; test: Antiviral activity against wild type HIV1 r13205 infected in human MT4 cells expressing LTR and EGFP assessed as inhibition of virus-induced cytopathic effect by fluorescence microscopic analysis; format: functional, organism-based; conditions: Human immunodeficiency virus 1, r13205, MT4
[12] = system: Human immunodeficiency virus 1; test: Antiviral activity against HIV1 T13436 infected in human MT4 cells expressing LTR and EGFP assessed as inhibition of virus-induced cytopathic effect by fluorescence microscopic analysis; format: functional, organism-based; conditions: Human immunodeficiency virus 1, T13436, MT4
[13] = system: Human immunodeficiency virus 1; test: Ratio of EC50 for antiviral activity against HIV1-T13436 to EC50 for antiviral activity against wild type HIV1 r13205; format: functional
[14] = system: Human immunodeficiency virus 1; test: Antiviral activity against HIV1 T13632 infected in human MT4 cells expressing LTR and EGFP assessed as inhibition of virus-induced cytopathic effect by fluorescence microscopic analysis; format: functional, organism-based; conditions: Human immunodeficiency virus 1, T13632, MT4
[15] = system: Human immunodeficiency virus 1; test: Antiviral activity against HIV1 T20760 infected in human MT4 cells expressing LTR and EGFP assessed as inhibition of virus-induced cytopathic effect by fluorescence microscopic analysis; format: functional, organism-based; conditions: Human immunodeficiency virus 1, T20760, MT4
[16] = target: T1, Human immunodeficiency virus type 1 protease (Human immunodeficiency virus 1, UniProt Q72874); test: Binding affinity to HIV1 recombinant wild type protease expressed in Escherichia coli BL21(DE3) assessed as inhibition constant
[17] = system: Human immunodeficiency virus 1; test: Antiviral activity against HIV1 LAI infected in human MT2 cells assessed as inhibition of virus-induced cytopathic effect by MTT assay; format: functional, organism-based; conditions: Human immunodeficiency virus 1, LAI
[18] = target: T1, Human immunodeficiency virus type 1 protease; test: Binding affinity to HIV1 protease assessed as inhibition constant
[19] = Lipophilicity, logD of the compound in Octanol/buffer by shake-flask method; format: physicochemical
[20] = system: Human immunodeficiency virus 1; test: Ratio of EC50 for antiviral activity against HIV1-MM to EC50 for antiviral activity against wild type HIV1 ERS104pre; format: functional
[21] = Selectivity index, ratio of CC50 for human MT2 cells to IC50 for antiviral activity against HIV1 LAI; format: toxicity; conditions: read-out: Ratio CC50/EC50
[22] = system: Human immunodeficiency virus 1; test: Ratio of EC50 for antiviral activity against HIV1-JSL to EC50 for antiviral activity against wild type HIV1 ERS104pre; format: functional
[23] = Apparent permeability in rat astrocytes/rat pericytes/monkey endothelial cells triple cell co-culture system incubated for 30 mins by spectrophotometric analysis; format: ADME, cell-based
[24] = system: Human immunodeficiency virus 1; test: Antiviral activity against multidrug-resistant HIV1-B infected in phytohemagglutinin-activated human PBMC cells assessed as inhibition of virus-induced cytopathic effect measured after 7 days by MTT assay; format: functional, organism-based; conditions: Human immunodeficiency virus 1, B, 168 h
[25] = system: Human immunodeficiency virus 1; test: Antiviral activity against multidrug-resistant HIV1-C infected in phytohemagglutinin-activated human PBMC cells assessed as inhibition of virus-induced cytopathic effect measured after 7 days by MTT assay; format: functional, organism-based; conditions: Human immunodeficiency virus 1, C, 168 h
[26] = system: Human immunodeficiency virus 1; test: Ratio of EC50 for antiviral activity against HIV1-C to EC50 for antiviral activity against wild type HIV1 ERS104pre; format: functional
[27] = system: Human immunodeficiency virus 1; test: Antiviral activity against multidrug-resistant HIV1-MM infected in phytohemagglutinin-activated human PBMC cells assessed as inhibition of virus-induced cytopathic effect measured after 7 days by MTT assay; format: functional, organism-based; conditions: Human immunodeficiency virus 1, MM, 168 h
[28] = system: Human immunodeficiency virus 1; test: Antiviral activity against multidrug-resistant HIV1-G infected in phytohemagglutinin-activated human PBMC cells assessed as inhibition of virus-induced cytopathic effect measured after 7 days by MTT assay; format: functional, organism-based; conditions: Human immunodeficiency virus 1, G, 168 h
[29] = system: Human immunodeficiency virus 1; test: Antiviral activity against multidrug-resistant HIV1-TM infected in phytohemagglutinin-activated human PBMC cells assessed as inhibition of virus-induced cytopathic effect measured after 7 days by MTT assay; format: functional, organism-based; conditions: Human immunodeficiency virus 1, TM, 168 h
[30] = system: Human immunodeficiency virus 1; test: Ratio of EC50 for antiviral activity against HIV1-G to EC50 for antiviral activity against wild type HIV1 ERS104pre; format: functional
[31] = system: Human immunodeficiency virus 1; test: Antiviral activity against wild type HIV1 ERS104pre infected in human PBMC cells assessed as inhibition of virus-induced cytopathic effect measured after 7 days by MTT assay; format: functional, organism-based; conditions: Human immunodeficiency virus 1, ERS104pre, 168 h
[32] = system: Human immunodeficiency virus 1; test: Ratio of EC50 for antiviral activity against HIV1-TM to EC50 for antiviral activity against wild type HIV1 ERS104pre; format: functional
[33] = Lipophilicity, logP of the compound in Octanol/water by shake-flask method; format: physicochemical
[34] = Cytotoxicity against human MT2 cells assessed as reduction in cell viability by MTT assay; format: toxicity, cell-based
[35] = system: Human immunodeficiency virus 1; test: Antiviral activity against multidrug-resistant HIV1-JSL infected in phytohemagglutinin-activated human PBMC cells assessed as inhibition of virus-induced cytopathic effect measured after 7 days by MTT assay; format: functional, organism-based; conditions: Human immunodeficiency virus 1, JSL, 168 h
[36] = system: Human immunodeficiency virus 1; test: Ratio of EC50 for antiviral activity against HIV1-B to EC50 for antiviral activity against wild type HIV1 ERS104pre; format: functional
[37] = target: T1, Human immunodeficiency virus type 1 protease; test: Inhibition of recombinant wildtype HIV1 Protease using Abz-Thr-Ile-Nle-Phe(NO2)-Gln-Arg peptide as substrate
[38] = system: Human immunodeficiency virus 1; test: Antiviral activity against darunavir-resistant HIV1 10P infected in phytohemagglutinin-activated human PBMC cells assessed as inhibition of virus-induced cytopathic effect measured after 7 days by MTT assay; format: functional, organism-based; conditions: Human immunodeficiency virus 1, 10P, 168 h
[39] = system: Human immunodeficiency virus 1; test: Ratio of EC50 for antiviral activity against darunavir-resistant HIV1 20P to EC50 for antiviral activity against wild type HIV1 ERS104pre; format: functional
[40] = system: Human immunodeficiency virus 1; test: Antiviral activity against darunavir-resistant HIV1 20P infected in phytohemagglutinin-activated human PBMC cells assessed as inhibition of virus-induced cytopathic effect measured after 7 days by MTT assay; format: functional, organism-based; conditions: Human immunodeficiency virus 1, 20P, 168 h
[41] = system: Human immunodeficiency virus 1; test: Ratio of EC50 for antiviral activity against darunavir-resistant HIV1 10P to EC50 for antiviral activity against wild type HIV1 ERS104pre; format: functional

Compound	pEC50 [17]	Ratio EC50 [20]	Ratio EC50 [22]	pEC50 [24]	pEC50 [25]	Ratio EC50 [26]	pEC50 [27]	pEC50 [28]	pEC50 [29]	Ratio EC50 [30]	pEC50 [31]	Ratio EC50 [32]	pEC50 [35]	Ratio EC50 [36]	pIC50 [37]	also measured
CC(C)CN(C[C@@H](O)[C@H](Cc1ccccc1)NC(=O)O[C@H]1CO[C@H]2OCC[C@H]21)S(=O)(=O)c1ccc2sc(NC3CCN(C4CCCC4)CC3)nc2c1																pEC50 [1]: 8.82; Ratio EC50 [2]: 12; Ratio EC50 [3]: 2.6; Ratio EC50 [4]: 1.6; Ratio EC50 [5]: 0.058; pEC50 [6]: 6.51; pEC50 [7]: 6.51; Ratio EC50 [8]: 12; pEC50 [9]: 7.17; Ratio EC50 [10]: 2.5; pEC50 [11]: 7.59; pEC50 [12]: 8.29; Ratio EC50 [13]: 0.2; pEC50 [14]: 7.38; pEC50 [15]: 7.19
CC(C)CN(C[C@@H](O)[C@H](Cc1ccccc1)NC(=O)O[C@H]1CO[C@H]2OCC[C@H]21)S(=O)(=O)c1ccc(C(=O)O)cc1	< 5.00															pKi [16]: 10.90
COc1ccc(S(=O)(=O)N(CC(C)C)C[C@@H](O)[C@H](Cc2ccccc2)NC(=O)O[C@H]2CO[C@H]3OCC(F)(F)[C@H]32)cc1	9.10	1	10	7.85	8.70	1	8.70	8.40	8.40	2	8.64	2	7.68	7		pKi [18]: 9.10; logD [19]: -0.29; selectivity ratio [21]: 21900; Papp at 0.5 h [23]: 61.8 ×10⁻⁶ cm/s; logP [33]: -0.14; CC50 [34]: 17500 nM
CC(C)(C)NC(=O)[C@@H]1C[C@@H]2CCCC[C@@H]2CN1C[C@@H](O)[C@@H](NC(=O)[C@H](CC(N)=O)NC(=O)c1ccc2ccccc2n1)c1cccs1															5.30	
Cc1c(O)cccc1C(=O)N[C@@H](c1cccs1)[C@H](O)CN1C[C@H]2CCCC[C@H]2C[C@H]1C(=O)NC(C)(C)C															4.52	
COC(=O)N[C@H](C(=O)N[C@@H](Cc1ccccc1)[C@@H](O)CN(Cc1ccc(-c2ccccn2)cc1)NC(=O)[C@@H](NC(=O)OC)C(C)(C)C)C(C)(C)C [ATAZANAVIR]		20	>78	6.35	7.41	14	7.09	7.71	7.25	7	8.68	24	< 6.68	174		pEC50 [38]: 6.49; Ratio EC50 [39]: >370; pEC50 [40]: < 6.00; Ratio EC50 [41]: 77
